Article PMC4237307 (Chembiochem : a European journal of chemical biology, 2014)

Columns and labels:
PfPK5 = PfPK5 (Plasmodium falciparum, UniProt P61075); assay type: binding; settings: for Percent binding to PfPK5: 10 μM compound
liver stage P. berghei = test: Time course of liver stage parasite inhibition; settings: inhibitor added to infected liver cells
[1] = mouse, in vivo
[2] = system: P. berghei-luciferase sporozoites; test: Mouse liver stage malaria model, parasite load in livers by in vivo imaging; set-up: species or system C57BL/6 mice
[3] = system: liver and blood stage P. berghei; settings: cited from earlier work
[4] = system: blood stage P. falciparum Dd2; test: Blood stage malaria dose-response assay; assay type: cell-based; settings: read-out: Blood stage malaria IC50
mTOR = settings: read-out: IC50 mTOR; cited from earlier work
[5] = system: liver stage P. berghei ANKA; assay type: cell-based
P. berghei = P. berghei parasitemia in mice after prophylactic treatment; assay type: in vivo; settings: single oral dose 100 mg/kg b.w. before infection

PfPK5, sequence (P61075 whole entry): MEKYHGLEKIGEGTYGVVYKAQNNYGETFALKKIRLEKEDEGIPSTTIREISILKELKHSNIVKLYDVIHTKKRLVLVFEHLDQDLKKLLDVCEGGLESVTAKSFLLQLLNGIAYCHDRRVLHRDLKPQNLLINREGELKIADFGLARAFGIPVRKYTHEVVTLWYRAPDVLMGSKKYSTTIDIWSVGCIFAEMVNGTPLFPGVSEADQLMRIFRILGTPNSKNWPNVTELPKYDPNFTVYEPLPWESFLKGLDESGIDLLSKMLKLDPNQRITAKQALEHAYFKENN

Cc1ccc([N+](=O)[O-])cc1S(=O)(=O)N(C)/N=C/c1cnc2ccc(Br)cn12 [PIK-75]
Percent binding to PfPK5 (PfPK5): > 50%
Kd (PfPK5; read-out: Kd for PfPK5, competition binding, absence of ATP): < 10000 nM

FC(F)c1nc2ccccc2n1-c1nc(N2CCOCC2)nc(N2CCOCC2)n1 [ZSTK474]
Parasite inhibition with 12-hour treatment (liver stage P. berghei): inhibit parasites with only a 12-hour treatment

CN1CC[C@H](c2c(O)cc(O)c3c(=O)cc(-c4ccccc4Cl)oc23)[C@H](O)C1 [Flavopiridol]
Percent binding to PfPK5 (PfPK5): > 50%

CC(C)(C)c1cnc(CSc2cnc(NC(=O)C3CCNCC3)s2)o1 [SNS-032]
Toxicity to mice [1]: relatively limited toxicity to mice
Parasite load in mouse livers vs vehicle ([2]; single oral dose 75 mg/kg b.w. before infection): reduce parasite load in mouse livers

Nc1ccc(-c2ccc3ncc4ccc(=O)n(-c5cccc(C(F)(F)F)c5)c4c3c2)cn1 [Torin2]
Activity in mouse animal model [3]: exhibits activity against liver and blood stage P. berghei
IC50 [4]: 1 nM
IC50 ([5]; read-out: Liver stage malaria IC50, liver stage): 40 nM

CNC(=O)c1cc(Oc2ccc(NC(=O)Nc3ccc(Cl)c(C(F)(F)F)c3)cc2)ccn1 [Nexavar]
Inhibition of parasite load in liver cells ([5]; low micromolar concentration): completely inhibited parasite load in liver cells

CCC(=O)N1CCN(c2ccc(-n3c(=O)ccc4cnc5ccc(-c6cnc7ccccc7c6)cc5c43)cc2C(F)(F)F)CC1 [Torin1]
Parasite inhibition with 12-hour treatment (liver stage P. berghei): inhibit parasites with only a 12-hour treatment

Cc1nc(N)sc1-c1ccnc(Nc2ccc(N3CCOCC3)cc2)n1 [CYC-116]
P. berghei parasitemia vs vehicle (P. berghei): reduction in P. berghei parasitemia
Parasite load in mouse livers vs vehicle ([2]; single oral dose 100 mg/kg b.w. before infection): significantly reduced parasite load in mouse livers
Stage selectivity (blood stage IC50 vs liver stage IC50) [5]: inhibited liver stage P. berghei significantly more potently than blood stage P. falciparum
